The source made the active and inactive calls. The calls are words filed in the database; no cut-off is given here. Numbered stars: 1 amine (or outer) side, 2 acyl side, 3 side chain; on linkers, the order of the positions; unused ones are H or OH. Bridge positions count the residues as written; N and C are the ends. Square brackets hold non-standard residues; d marks the D form. Peptide text beside a SMILES is read from it. I, II: the chains in the order shown. ξ: configuration not given here. X1 = O=C(CCOCCOCCOCCOCCOCCOCCOCCOCCOCCn1cc(CCCC(=O)[*:2])nn1)[*:1]; ξK = NCCCCC(N)C(=O)O
Key:
[1] = biological target: Neuronal acetylcholine receptor subunit alpha-7 (Rattus norvegicus, UniProt Q05941); assay: Inhibition of rat alpha7 nAChR
Neuronal acetylcholine receptor subunit alpha-7 (Rattus norvegicus, UniProt Q05941), sequence (Q05941 whole entry): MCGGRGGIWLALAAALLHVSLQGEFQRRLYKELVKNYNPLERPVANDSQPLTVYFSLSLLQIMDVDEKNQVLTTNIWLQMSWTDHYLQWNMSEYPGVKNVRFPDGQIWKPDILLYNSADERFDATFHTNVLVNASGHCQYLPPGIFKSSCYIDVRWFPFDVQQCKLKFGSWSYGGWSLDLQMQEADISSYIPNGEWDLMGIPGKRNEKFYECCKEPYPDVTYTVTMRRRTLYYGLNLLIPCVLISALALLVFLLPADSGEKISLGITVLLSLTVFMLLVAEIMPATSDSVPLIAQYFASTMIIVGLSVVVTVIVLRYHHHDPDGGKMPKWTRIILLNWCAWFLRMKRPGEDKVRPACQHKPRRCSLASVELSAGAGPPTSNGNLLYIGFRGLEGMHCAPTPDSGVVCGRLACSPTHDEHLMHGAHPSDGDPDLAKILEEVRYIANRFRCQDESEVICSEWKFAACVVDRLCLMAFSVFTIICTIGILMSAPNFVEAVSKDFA

[2] = biological target: T1, Neuronal acetylcholine receptor; alpha9/alpha10 (Homo sapiens, UniProt Q9GZZ6+Q9UGM1); assay: Inhibition of human alpha9alpha10 nAChR expressed in Xenopus laevis oocytes assessed as inhibition of ACh-evoked currents by two-electrode voltage clamp assay; format: cell-based
T1 sequence (Q9UGM1 whole entry): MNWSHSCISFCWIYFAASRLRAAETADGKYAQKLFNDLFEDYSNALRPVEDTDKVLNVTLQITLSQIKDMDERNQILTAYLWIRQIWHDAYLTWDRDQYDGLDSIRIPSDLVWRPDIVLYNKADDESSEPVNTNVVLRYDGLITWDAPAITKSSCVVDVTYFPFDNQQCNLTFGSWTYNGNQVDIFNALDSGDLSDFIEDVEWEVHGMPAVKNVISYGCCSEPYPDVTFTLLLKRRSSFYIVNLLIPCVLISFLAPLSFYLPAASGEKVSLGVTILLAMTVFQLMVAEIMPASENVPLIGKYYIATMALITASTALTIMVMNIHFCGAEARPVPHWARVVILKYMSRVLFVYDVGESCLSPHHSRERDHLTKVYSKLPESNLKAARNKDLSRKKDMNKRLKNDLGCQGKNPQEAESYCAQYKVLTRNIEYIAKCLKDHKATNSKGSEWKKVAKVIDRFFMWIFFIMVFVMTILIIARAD
T1 sequence (Q9GZZ6 whole entry): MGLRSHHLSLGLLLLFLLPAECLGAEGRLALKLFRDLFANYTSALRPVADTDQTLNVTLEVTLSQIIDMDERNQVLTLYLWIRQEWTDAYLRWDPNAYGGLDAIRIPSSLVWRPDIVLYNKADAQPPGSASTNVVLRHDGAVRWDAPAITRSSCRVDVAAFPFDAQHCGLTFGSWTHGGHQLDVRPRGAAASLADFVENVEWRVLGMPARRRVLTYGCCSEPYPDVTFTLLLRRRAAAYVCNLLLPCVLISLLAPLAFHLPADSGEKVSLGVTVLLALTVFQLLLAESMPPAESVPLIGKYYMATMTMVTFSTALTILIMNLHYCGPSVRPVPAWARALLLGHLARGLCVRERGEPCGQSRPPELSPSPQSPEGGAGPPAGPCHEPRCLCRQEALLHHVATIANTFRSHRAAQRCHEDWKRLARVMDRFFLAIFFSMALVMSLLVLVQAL

[3] = biological target: T2, Neuronal acetylcholine receptor subunit alpha-7 (Homo sapiens, UniProt P36544); assay: Inhibition of human alpha7 nAChR expressed in Xenopus laevis oocytes assessed as inhibition of ACh-evoked currents by two-electrode voltage clamp assay; format: cell-based
T2 sequence (P36544 whole entry): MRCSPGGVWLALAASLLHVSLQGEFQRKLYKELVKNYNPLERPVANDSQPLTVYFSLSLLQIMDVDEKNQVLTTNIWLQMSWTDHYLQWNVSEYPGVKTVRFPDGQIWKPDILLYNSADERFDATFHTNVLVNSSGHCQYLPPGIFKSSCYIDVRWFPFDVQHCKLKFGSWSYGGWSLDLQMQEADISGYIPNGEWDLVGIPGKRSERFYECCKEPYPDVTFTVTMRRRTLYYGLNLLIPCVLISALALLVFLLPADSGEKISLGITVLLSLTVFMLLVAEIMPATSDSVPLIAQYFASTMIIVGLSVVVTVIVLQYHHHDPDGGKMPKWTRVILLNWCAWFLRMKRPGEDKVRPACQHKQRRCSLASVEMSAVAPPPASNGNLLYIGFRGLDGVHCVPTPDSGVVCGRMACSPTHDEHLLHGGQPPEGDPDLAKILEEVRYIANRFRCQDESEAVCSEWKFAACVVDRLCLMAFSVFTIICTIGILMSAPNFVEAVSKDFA

[4] = biological target: T2, Neuronal acetylcholine receptor subunit alpha-7; assay: Reversible inhibition of human alpha7 nAChR expressed in Xenopus laevis oocytes assessed as inhibition of ACh-evoked currents by two-electrode voltage clamp assay; format: cell-based
[5] = biological target: T3, Neuronal acetylcholine receptor; alpha9/alpha10 (Homo sapiens) (UniProt Q9UGM1+Q9GZZ6); assay: Reversible inhibition of human alpha9alpha10 nAChR expressed in Xenopus laevis oocytes assessed as inhibition of ACh-evoked currents by two-electrode voltage clamp assay; format: cell-based
[6] = biological target: T2, Neuronal acetylcholine receptor subunit alpha-7; assay: Inhibition of human alpha7 nAChR expressed in Xenopus laevis oocytes assessed as inhibition of ACh-evoked currents at 1 uM by two-electrode voltage clamp assay relative to control; format: cell-based
[7] = biological target: T4, Neuronal acetylcholine receptor; alpha3/beta2 (Homo sapiens) (UniProt P17787+P32297); assay: Inhibition of human alpha3beta2 nAChR expressed in Xenopus laevis oocytes assessed as inhibition of ACh-evoked currents at 100 nM by two-electrode voltage clamp assay; format: cell-based
[8] = biological target: T5, Neuronal acetylcholine receptor; alpha4/beta2 (Homo sapiens) (UniProt P17787+P43681); assay: Inhibition of human alpha4beta2 nAChR expressed in Xenopus laevis oocytes assessed as inhibition of ACh-evoked currents at 100 nM by two-electrode voltage clamp assay; format: cell-based
[9] = biological target: T5, Neuronal acetylcholine receptor; alpha4/beta2 (Homo sapiens); assay: Inhibition of human alpha4beta2 nAChR expressed in Xenopus laevis oocytes assessed as inhibition of ACh-evoked currents at 1 uM by two-electrode voltage clamp assay; format: cell-based
[10] = biological target: T1, Neuronal acetylcholine receptor; alpha9/alpha10; assay: Inhibition of human alpha9alpha10 nAChR expressed in Xenopus laevis oocytes expressing alpha9:alpha10 mRNA injection ratio of 1:3 assessed as inhibition of ACh-evoked currents by two-electrode voltage clamp assay; format: cell-based
[11] = biological target: T6, Neuronal acetylcholine receptor; alpha3/beta4 (Homo sapiens) (UniProt P30926+P32297); assay: Inhibition of human alpha3beta4 nAChR expressed in Xenopus laevis oocytes assessed as inhibition of ACh-evoked currents at 1 uM by two-electrode voltage clamp assay; format: cell-based
[12] = biological target: T6, Neuronal acetylcholine receptor; alpha3/beta4 (Homo sapiens); assay: Inhibition of human alpha3beta4 nAChR expressed in Xenopus laevis oocytes assessed as inhibition of ACh-evoked currents at 100 nM by two-electrode voltage clamp assay; format: cell-based
[13] = biological target: T3, Neuronal acetylcholine receptor; alpha9/alpha10 (Homo sapiens); assay: Inhibition of human alpha9alpha10 nAChR expressed in Xenopus laevis oocytes assessed as inhibition of ACh-evoked currents at 100 nM by two-electrode voltage clamp assay; format: cell-based
[14] = biological target: T3, Neuronal acetylcholine receptor; alpha9/alpha10 (Homo sapiens); assay: Inhibition of human alpha9alpha10 nAChR expressed in Xenopus laevis oocytes assessed as inhibition of ACh-evoked currents at 1 uM by two-electrode voltage clamp assay; format: cell-based
[15] = biological target: T4, Neuronal acetylcholine receptor; alpha3/beta2 (Homo sapiens); assay: Inhibition of human alpha3beta2 nAChR expressed in Xenopus laevis oocytes assessed as inhibition of ACh-evoked currents at 1 uM by two-electrode voltage clamp assay relative to control; format: cell-based

SMILES | IC50 [2] [nM] | IC50 [3] [nM] | inhibition [4] | inhibition [5] | further results
N=C(N)NCCC[C@H](NC(=O)[C@@H]1CSSC[C@@H]2NC(=O)[C@@H](NC(=O)CN)CSSC[C@H](NC(=O)[C@H](CCCNC(=N)N)NC(=O)[C@@H]3CCCN3C(=O)[C@H](CC(=O)O)NC(=O)[C@H](CO)NC2=O)C(=O)N[C@@H](CCCNC(=N)N)C(=O)N[C@@H](Cc2ccc(O)cc2)C(=O)N[C@@H](CCCNC(=N)N)C(=O)N1)C(=O)O | – | – | – | – | IC50 [1]: 4660 nM
CC[C@H](C)[C@@H]1NC(=O)[C@H](CCC(=O)O)NC(=O)[C@@H]2CCCN2C(=O)[C@H](Cc2cnc[nH]2)NC(=O)[C@H](CC(=O)O)NC(=O)[C@H](Cc2ccc(O)cc2)NC(=O)[C@H](CC(N)=O)NC(=O)[C@@H]2CSSC[C@H](NC(=O)CN)C(=O)N[C@@H](CSSC[C@@H](C(N)=O)NC1=O)C(=O)N[C@@H](CO)C(=O)N[C@@H](CC(=O)O)C(=O)N1CCC[C@H]1C(=O)N[C@@H](CCCNC(=N)N)C(=O)N2 | 1000 | > 10000 | – | – | –
C[C@@H]1NC(=O)[C@@H]2CSSC[C@H](NC(=O)CN)C(=O)N[C@@H](CSSC[C@@H](C(N)=O)NC(=O)[C@H](CCCNC(=N)N)NC(=O)[C@H](Cc3c[nH]c4ccccc34)NC1=O)C(=O)N[C@@H](CO)C(=O)N[C@@H](CC(=O)O)C(=O)N1CCC[C@H]1C(=O)N[C@@H](CCCNC(=N)N)C(=O)N2 | – | 1000 | – | – | –
CC[C@H](C)[C@@H]1NC(=O)[C@H](CCC(=O)O)NC(=O)[C@@H]2CCCN2C(=O)[C@H](Cc2cnc[nH]2)NC(=O)[C@H](CC(=O)O)NC(=O)[C@H](Cc2ccc(O)cc2)NC(=O)[C@H](CC(N)=O)NC(=O)[C@@H]2CSSC[C@H](NC(=O)CNC(=O)CCOCCOCCOCCOCCOCCOCCOCCOCCOCCn3cc(CCCC(=O)NCCCCC(NC(=O)CCCc4cn(CCOCCOCCOCCOCCOCCOCCOCCOCCOCCC(=O)NCC(=O)N[C@H]5CSSC[C@@H]6NC(=O)[C@H](CCCNC(=N)N)NC(=O)[C@@H]7CCCN7C(=O)[C@H](CC(=O)O)NC(=O)[C@H](CO)NC(=O)[C@H](CSSC[C@@H](C(N)=O)NC(=O)[C@H]([C@@H](C)CC)NC(=O)[C@H](CCC(=O)O)NC(=O)[C@@H]7CCCN7C(=O)[C@H](Cc7cnc[nH]7)NC(=O)[C@H](CC(=O)O)NC(=O)[C@H](Cc7ccc(O)cc7)NC(=O)[C@H](CC(N)=O)NC6=O)NC5=O)nn4)C(=O)NCC(=O)N[C@@H](CCCNC(=N)N)C(=O)N[C@@H](CCCNC(=N)N)C(=O)N[C@@H](CCCNC(=N)N)C(=O)N[C@@H](CCCNC(=N)N)C(=O)NCC(N)=O)nn3)C(=O)N[C@@H](CSSC[C@@H](C(N)=O)NC1=O)C(=O)N[C@@H](CO)C(=O)N[C@@H](CC(=O)O)C(=O)N1CCC[C@H]1C(=O)N[C@@H](CCCNC(=N)N)C(=O)N2 (some centres undefined) | 266 | > 10000 | Dose-dependent effect | Dose-dependent effect | –
N=C(N)NCCC[C@@H]1NC(=O)[C@H](Cc2ccc(O)cc2)NC(=O)[C@H](CCCNC(=N)N)NC(=O)[C@@H]2CSSC[C@H](NC(=O)CN)C(=O)N[C@@H](CSSC[C@@H](C(N)=O)NC1=O)C(=O)N[C@@H](CO)C(=O)N[C@@H](CC(=O)O)C(=O)N1CCC[C@H]1C(=O)N[C@@H](CCCNC(=N)N)C(=O)N2 (H-GCCSDPRCRYRC-NH2; disulfide 2-8, 3-12) | 249 | > 1000 | – | – | inhibition [6]: 20%
CC(C)C[C@@H]1NC(=O)[C@H](CCC(=O)O)NC(=O)[C@@H]2CCCN2C(=O)[C@H](Cc2cnc[nH]2)NC(=O)[C@H](CC(N)=O)NC(=O)[C@H](C(C)C)NC(=O)[C@H](CO)NC(=O)[C@@H]2CSSC[C@H](NC(=O)CN)C(=O)N[C@@H](CSSC[C@@H](C(N)=O)NC1=O)C(=O)N[C@@H](CO)C(=O)N[C@@H](Cc1cnc[nH]1)C(=O)N1CCC[C@H]1C(=O)N[C@@H](C)C(=O)N2 (H-GCCSHPACSVNHPELC-NH2; disulfide 2-8, 3-16) | – | > 10000 | – | – | –
N=C(N)NCCC[C@H](NC(=O)CNC(=O)C(CCCCNC(=O)CCCc1cn(CCOCCOCCOCCOCCOCCOCCOCCOCCOCCC(=O)NCC(=O)N[C@H]2CSSC[C@@H]3NC(=O)[C@H](CCCNC(=N)N)NC(=O)[C@@H]4CCCN4C(=O)[C@H](CC(=O)O)NC(=O)[C@H](CO)NC(=O)[C@H](CSSC[C@@H](C(N)=O)NC(=O)[C@H](CCCNC(=N)N)NC(=O)[C@H](Cc4ccc(O)cc4)NC(=O)[C@H](CCCNC(=N)N)NC3=O)NC2=O)nn1)NC(=O)CCCc1cn(CCOCCOCCOCCOCCOCCOCCOCCOCCOCCC(=O)NCC(=O)N[C@H]2CSSC[C@@H]3NC(=O)[C@H](CCCNC(=N)N)NC(=O)[C@@H]4CCCN4C(=O)[C@H](CC(=O)O)NC(=O)[C@H](CO)NC(=O)[C@H](CSSC[C@@H](C(N)=O)NC(=O)[C@H](CCCNC(=N)N)NC(=O)[C@H](Cc4ccc(O)cc4)NC(=O)[C@H](CCCNC(=N)N)NC3=O)NC2=O)nn1)C(=O)N[C@@H](CCCNC(=N)N)C(=O)N[C@@H](CCCNC(=N)N)C(=O)N[C@@H](CCCNC(=N)N)C(=O)NCC(N)=O (some centres undefined) (I: GCCSDPRCRYRC-NH2 / II: GCCSDPRCRYRC-NH2 / III: [ξK]GRRRRG-NH2; disulfide I:2-I:8, I:3-I:12, II:2-II:8, II:3-II:12; linker I:N-III:1, II:N-III:N via X1) | 38.5 | 63.1 | Dose-dependent effect | Dose-dependent effect | inhibition [7]: Active; inhibition [8]: inactive; inhibition [9]: inactive; IC50 [10]: 117 nM; inhibition [11]: inactive; inhibition [12]: inactive; inhibition [13]: Active; inhibition [14]: Active; inhibition [15]: 60%
CC(C)C[C@@H]1NC(=O)[C@H](CCC(=O)O)NC(=O)[C@@H]2CCCN2C(=O)[C@H](Cc2cnc[nH]2)NC(=O)[C@H](CC(N)=O)NC(=O)[C@H](C(C)C)NC(=O)[C@H](CO)NC(=O)[C@@H]2CSSC[C@H](NC(=O)CNC(=O)CCOCCOCCOCCOCCOCCOCCOCCOCCOCCn3cc(CCCC(=O)NCCCCC(NC(=O)CCCc4cn(CCOCCOCCOCCOCCOCCOCCOCCOCCOCCC(=O)NCC(=O)N[C@H]5CSSC[C@@H]6NC(=O)[C@H](C)NC(=O)[C@@H]7CCCN7C(=O)[C@H](Cc7cnc[nH]7)NC(=O)[C@H](CO)NC(=O)[C@H](CSSC[C@@H](C(N)=O)NC(=O)[C@H](CC(C)C)NC(=O)[C@H](CCC(=O)O)NC(=O)[C@@H]7CCCN7C(=O)[C@H](Cc7cnc[nH]7)NC(=O)[C@H](CC(N)=O)NC(=O)[C@H](C(C)C)NC(=O)[C@H](CO)NC6=O)NC5=O)nn4)C(=O)NCC(=O)N[C@@H](CCCNC(=N)N)C(=O)N[C@@H](CCCNC(=N)N)C(=O)N[C@@H](CCCNC(=N)N)C(=O)N[C@@H](CCCNC(=N)N)C(=O)NCC(N)=O)nn3)C(=O)N[C@@H](CSSC[C@@H](C(N)=O)NC1=O)C(=O)N[C@@H](CO)C(=O)N[C@@H](Cc1cnc[nH]1)C(=O)N1CCC[C@H]1C(=O)N[C@@H](C)C(=O)N2 (some centres undefined) (I: GCCSHPACSVNHPELC-NH2 / II: GCCSHPACSVNHPELC-NH2 / III: [ξK]GRRRRG-NH2; disulfide I:2-I:8, I:3-I:16, II:2-II:8, II:3-II:16; linker I:N-III:1, II:N-III:N via X1) | 1.9 | 354 | Dose-dependent effect | Dose-dependent effect | –

From ChEMBL document CHEMBL4354859, “Dimerization of α-Conotoxins as a Strategy to Enhance the Inhibition of the Human α7 and α9α10 Nicotinic Acetylcholine Receptors” (J Med Chem, 2020)
